Measured values as given in patent publication US20250114329A1, “METHODS FOR TREATING AML-MRC AND MDS” (Ascentage Pharma (Suzhou) Co., LTD, priority 2022, published 2025).

How the values were obtained:
[1] = tested on: relapsed/refractory AML, CMML or MDS (AML-MRC subject); assay: Phase Ib/II study of Compound C alone or in combination with azacitidine (Example 1); type: in vivo, human; conditions: Compound C alone, 150 mg
Excerpt: This was a two part study in patients with relapsed/refractory (R/R) acute myeloid leukemia (AML), Chronic Myelomonocytic Leukemia (CMML) and relapsed/progressed higher-risk myelodysplastic syndrome (MDS), that was designed to evaluate the safety and tolerability of Compound C as a single agent in Part I, followed by a combination of Compound C plus 5-azacitidine in Part II. Part I: Dose escalation of Compound C will use standard 3+3 design. Compound C will be administered orally once daily (QD) on Day 1 to 5 every 28-day cycle. The starting target dose is 100 mg (dose level; DL1) and will be increased in subsequent cohorts to 150 mg (DL2), 200 mg (DL3) and 250 mg (DL4), accordingly. Part II: Compound C will be co-administered with 5-azacitidine SC or IV at 75 mg/m^2 once daily on 7 out of 9 days from Day 1 to Day 9 every 28-day cycle.

[2] = tested on: H929 cells; assay: Western Blotting assay; type: cell-based, human; conditions: 24 hrs or 48 hrs
Protocol: After treatments with single or combined test articles, cultured cells were harvested and washed with ice-cold PBS. Cell pellets were lysed in RIPA buffer containing 1% PMSF, 1% phosphatase inhibitor, and 1% protease inhibitors. Protein concentrations were determined using the BCA Protein Assay Kit. Whole tumor lysates ([…]) were separated on an 8-12% SDS-PAGE. The separated proteins were transferred to a PVDF membrane. The PVDF membrane was blocked with 1-3% BSA buffer for 30 min to 1 hour at room temperature. Incubate membrane with diluted primary antibody in 1×TBST containing 1-3% BSA at 4° C., with gentle agitation overnight. Wash the membrane with 1×TBST three times. Incubate membrane with HRP-conjugated secondary antibody with gentle agitation for 1 hour at room temperature. Wash the membrane with 1×TBST three times. The signals were visualized with Super ECL Detection Reagent and detected by chemiluminescence imaging system.

[3] = tested on: R/R AML with myelodysplasia-related changes; assay: Phase Ib/II study of Compound C alone or in combination with 5-azacitidine or cytarabine (Example 2); type: in vivo, human; conditions: Compound C alone, person, R/R AML-MRC
Excerpt: This was a three parts study in patients with relapsed/refractory acute myeloid leukemia (AML), relapsed or progressed high or very high risk myelodysplastic syndrome (MDS) that was designed to evaluate the safety and tolerability of Compound C as a single agent in Part I, followed by a combination dose escalation of Compound C plus either 5-azacitidine or cytarabine in Part II and a dose expansion of the combination treatment in part III. Part I: Dose escalation of Compound C will use standard 3+3 design. Compound C will be administered orally once daily (QD) on Day 1 to 7 every 28-day cycle. The starting target dose is 100 mg (dose level; DL1) and will be increased in subsequent cohorts to 150 mg (DL2), 200 mg (DL3) and 250 mg (DL4), accordingly. Part II: Dose escalation of Compound C combination with either 5-azacitidine or cytarabine, which includes two Arms, Arm A and Arm B. Arm A will enroll patients with relapsed or progressed high or very high risk MDS and Arm B will enroll patients with R/R AML. In this part, 5-azacitidine and cytarabine will be administered with fixed dose. The starting dose of Compound C was 100 mg and will be increased subsequently to 150 mg and 200 mg. In Arm A, Compound C will be co-administered with 5-azacitidine subcutaneously injected at 75 mg/m^2 once daily on Day 1 to 7 every 28-day cycle. In Arm B, Compound C will be co-administered once daily on Day 1 to 7 every 28-day cycle with cytarabine intravenously administered at 1 g/m^2 once daily on Day 3 to 7 every 28-day cycle.

CCN1[C@@H](C(=O)NC23CCC(C(=O)O)(CC2)CC3)[C@H](c2cccc(Cl)c2F)[C@]2(C(=O)Nc3cc(Cl)ccc32)C12CCCCC2 [Compound C, alrizomadlin]
End of cycle 1 disease assessment ([1]; person, AML-MRC (TP53w, FLT3-, IDH1/2-), prior venetoclax + decitabine): CRi
Blast at C2D1 ([1]; reduced from 43%, Day 1 of cycle 2): to 13%
Blast at C3D1 ([1]; reduced from 43%, Day 1 of cycle 3): C2D1, to 3%
P53, MDM2 and P21 expression [2]: upregulated
Response ([3]; 100 mg, prior D-CAG, C1D62): CRi
Response ([3]; 200 mg, prior D-CAG, C3D21): CRi
Response ([3]; 250 mg, several prior regimens): MLFS
